Source: article PMC4447944 (The Journal of Biological Chemistry, 2015)

How the values were obtained:
hMELK = molecular target: T1, hMELK (Homo sapiens, UniProt Q14680); assay: KINOMEscan; format: binding
T1 construct: purchased DiscoverX

hSTK35 = molecular target: T2, hSTK35 (Homo sapiens, UniProt Q8TDR2); assay: KINOMEscan; format: binding
T2 construct: purchased DiscoverX (KINOMEscan platform)

p53 Lys370 methylation = assay: Western blot time course and subcellular fractionation, KYSE-150 cells stably expressing FLAG-SMYD2; format: cell-based, human
Procedure: 5 × 10^6 KYSE-150 cells or KYSE-150 cells stably overexpressing SMYD2 were harvested and separated into subcellular fractions using the Subcellular Protein Fractionation kit for cultured cells (Thermo Scientific) according to the manufacturer's instructions. Lysates were reduced, boiled, subjected to 4–20% SDS-PAGE, and transferred to nitrocellulose membranes. […] Each membrane was then incubated with ECL anti-rabbit or anti-mouse IgG HRP-linked whole antibody (GE Healthcare) followed by detection with SuperSignal West Femto Maximum Sensitivity Substrate (Thermo Scientific) on a ChemiDoc^TM XRS system (Bio-Rad). Primary tumor lysates in RIPA buffer were obtained from Crownbio Bioscience. Cancer cell lines were obtained from the German Collection of Microorganisms and Cell Cultures GmbH (DSMZ), the Korean Cell Line Bank, the Japanese Collection of Research Bio-Resources, or the American Type Culture Collection (ATCC). Tumor cells were lysed in buffer containing 50 mM Tris-HCl, pH 7.5, 500 mM NaCl, 1% Nonidet P-40, 0.25% sodium deoxycholate, 20 mM NaF, protease inhibitor mixture (Roche Applied Science), and phosphatase inhibitor mixtures I and II (Sigma). Tumor or cell lysates were boiled, subjected to 4–20% SDS-PAGE, and transferred to nitrocellulose membrane. Each membrane was blocked in Odyssey Blocking Buffer and incubated with custom-made mouse monoclonal anti-SMYD2 or mouse monoclonal anti-β-actin (Sigma) antibody followed by detection with IRDye680RD goat anti-mouse IgG on the Odyssey Imager.

hEIF2AK1 = molecular target: T3, hEIF2AK1 (Homo sapiens, UniProt Q9BQI3); assay: KINOMEscan; format: binding
T3 construct: purchased DiscoverX

hDDR2 = molecular target: T4, hDDR2 (Homo sapiens, UniProt Q16832); assay: KINOMEscan; format: binding
T4 construct: purchased DiscoverX (KINOMEscan platform)

hTBK1 = molecular target: T5, hTBK1 (Homo sapiens, UniProt Q9UHD2); assay: KINOMEscan; format: binding
T5 construct: purchased DiscoverX

hFER = molecular target: T6, hFER (Homo sapiens, UniProt P16591); assay: KINOMEscan; format: binding
T6 construct: purchased DiscoverX

hSNARK = molecular target: T7, hSNARK (Homo sapiens, UniProt Q9H093); assay: KINOMEscan; format: binding
T7 construct: purchased DiscoverX (KINOMEscan platform)

hD2L = hD2L (Homo sapiens, UniProt P14416); assay: cAMP Potentiation (Eurofins-CEREP); conditions: @ 10 μM
hULK1 = molecular target: T8, hULK1 (Homo sapiens, UniProt O75385); assay: KINOMEscan; format: binding
T8 construct: purchased DiscoverX

[1] = molecular target: T9, hEGFR(L747-S752del, P753S) (Homo sapiens, UniProt P00533, DEL747-752/P753S); assay: KINOMEscan; format: binding
T9 construct: purchased DiscoverX

hALK(C1156Y) = molecular target: T10, hALK(C1156Y) (Homo sapiens, UniProt Q9UM73, C1156Y); assay: KINOMEscan; format: binding
T10 construct: purchased DiscoverX

hABL1(pQ252H) = molecular target: T11, hABL1(pQ252H) (Homo sapiens, UniProt P00519, Q252H); assay: KINOMEscan; format: binding
T11 construct: purchased DiscoverX (KINOMEscan platform)

hLKB1 = molecular target: T12, hLKB1 (Homo sapiens, UniProt Q15831); assay: KINOMEscan; format: binding
T12 construct: purchased DiscoverX (KINOMEscan platform)

hYANK1 = molecular target: T13, hYANK1 (Homo sapiens, UniProt Q8WU08); assay: KINOMEscan; format: binding
T13 construct: purchased DiscoverX

hKIT = molecular target: T14, hKIT (Homo sapiens, UniProt P10721); assay: KINOMEscan; format: binding
T14 construct: purchased DiscoverX (KINOMEscan panel)

hAXL = molecular target: T15, hAXL (Homo sapiens, UniProt P30530); assay: KINOMEscan; format: binding
T15 construct: purchased DiscoverX

hEPHA3 = molecular target: T16, hEPHA3 (Homo sapiens, UniProt P29320); assay: KINOMEscan; format: binding
T16 construct: purchased DiscoverX

hBMPR1A = molecular target: T17, hBMPR1A (Homo sapiens, UniProt P36894); assay: KINOMEscan; format: binding
T17 construct: purchased DiscoverX

hCLK4 = molecular target: T18, hCLK4 (Homo sapiens, UniProt Q9HAZ1); assay: KINOMEscan; format: binding
T18 construct: purchased DiscoverX (KINOMEscan platform)

hCAMK1D = molecular target: T19, hCAMK1D (Homo sapiens, UniProt Q8IU85); assay: KINOMEscan; format: binding
T19 construct: purchased DiscoverX

hADRβ2 = hADRβ2 (Homo sapiens, UniProt P07550); assay: β-arrestin Antagonist (Eurofins-CEREP); conditions: read-out: % Effect, Inhibition
hMAP3K3 = molecular target: T20, hMAP3K3 (Homo sapiens, UniProt Q99759); assay: KINOMEscan; format: binding
T20 construct: purchased DiscoverX (KINOMEscan platform)

hYES = molecular target: T21, hYES (Homo sapiens, UniProt P07947); assay: KINOMEscan; format: binding
T21 construct: purchased DiscoverX

hTAOK2 = molecular target: T22, hTAOK2 (Homo sapiens, UniProt Q9UL54); assay: KINOMEscan; format: binding
T22 construct: purchased DiscoverX

hDCAMKL1 = molecular target: T23, hDCAMKL1 (Homo sapiens, UniProt O15075); assay: KINOMEscan; format: binding
T23 construct: purchased DiscoverX (KINOMEscan platform)

hDYRK2 = molecular target: T24, hDYRK2 (Homo sapiens, UniProt Q92630); assay: KINOMEscan; format: binding
T24 construct: purchased DiscoverX

hSRPK3 = molecular target: T25, hSRPK3 (Homo sapiens, UniProt Q9UPE1); assay: KINOMEscan; format: binding
T25 construct: purchased DiscoverX (KINOMEscan platform)

hRARα = molecular target: T26, hRARα (Homo sapiens, UniProt P10276); assay: Nuclear hormone receptor assay (Eurofins-CEREP); conditions: read-out: Relative IC50
T26 construct: Eurofins-CEREP

hFGFR3(G697C) = molecular target: T27, hFGFR3(G697C) (Homo sapiens, UniProt P22607, G697C); assay: KINOMEscan; format: binding
T27 construct: purchased DiscoverX

hRXRα = molecular target: T28, hRXRα (Homo sapiens, UniProt P19793); assay: Nuclear hormone receptor assay (Eurofins-CEREP); conditions: read-out: Relative IC50
T28 construct: Eurofins-CEREP

hGRK4 = molecular target: T29, hGRK4 (Homo sapiens, UniProt P32298); assay: KINOMEscan; format: binding
T29 construct: purchased DiscoverX

T19 sequence (Q8IU85 whole entry): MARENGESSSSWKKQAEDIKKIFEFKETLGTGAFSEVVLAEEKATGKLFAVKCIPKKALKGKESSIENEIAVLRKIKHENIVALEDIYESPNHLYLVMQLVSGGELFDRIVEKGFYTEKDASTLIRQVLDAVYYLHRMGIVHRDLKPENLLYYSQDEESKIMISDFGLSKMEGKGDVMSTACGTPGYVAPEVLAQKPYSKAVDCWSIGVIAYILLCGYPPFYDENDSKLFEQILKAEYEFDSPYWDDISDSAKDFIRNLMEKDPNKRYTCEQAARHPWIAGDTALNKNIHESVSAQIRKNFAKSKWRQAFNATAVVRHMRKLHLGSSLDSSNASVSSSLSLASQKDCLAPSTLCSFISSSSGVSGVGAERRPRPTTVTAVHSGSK
T26 sequence (P10276 whole entry): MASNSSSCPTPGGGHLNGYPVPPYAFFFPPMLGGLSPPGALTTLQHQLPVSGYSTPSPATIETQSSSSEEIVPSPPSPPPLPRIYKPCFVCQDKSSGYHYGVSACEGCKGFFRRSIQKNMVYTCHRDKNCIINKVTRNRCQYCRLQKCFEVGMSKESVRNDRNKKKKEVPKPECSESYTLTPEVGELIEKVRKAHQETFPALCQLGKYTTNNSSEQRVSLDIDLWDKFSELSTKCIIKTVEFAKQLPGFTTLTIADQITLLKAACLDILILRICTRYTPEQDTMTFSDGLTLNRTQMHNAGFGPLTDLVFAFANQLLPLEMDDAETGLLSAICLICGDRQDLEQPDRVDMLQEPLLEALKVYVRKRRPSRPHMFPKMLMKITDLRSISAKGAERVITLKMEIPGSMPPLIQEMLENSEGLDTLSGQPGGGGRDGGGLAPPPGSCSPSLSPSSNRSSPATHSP
T1 sequence (Q14680 whole entry): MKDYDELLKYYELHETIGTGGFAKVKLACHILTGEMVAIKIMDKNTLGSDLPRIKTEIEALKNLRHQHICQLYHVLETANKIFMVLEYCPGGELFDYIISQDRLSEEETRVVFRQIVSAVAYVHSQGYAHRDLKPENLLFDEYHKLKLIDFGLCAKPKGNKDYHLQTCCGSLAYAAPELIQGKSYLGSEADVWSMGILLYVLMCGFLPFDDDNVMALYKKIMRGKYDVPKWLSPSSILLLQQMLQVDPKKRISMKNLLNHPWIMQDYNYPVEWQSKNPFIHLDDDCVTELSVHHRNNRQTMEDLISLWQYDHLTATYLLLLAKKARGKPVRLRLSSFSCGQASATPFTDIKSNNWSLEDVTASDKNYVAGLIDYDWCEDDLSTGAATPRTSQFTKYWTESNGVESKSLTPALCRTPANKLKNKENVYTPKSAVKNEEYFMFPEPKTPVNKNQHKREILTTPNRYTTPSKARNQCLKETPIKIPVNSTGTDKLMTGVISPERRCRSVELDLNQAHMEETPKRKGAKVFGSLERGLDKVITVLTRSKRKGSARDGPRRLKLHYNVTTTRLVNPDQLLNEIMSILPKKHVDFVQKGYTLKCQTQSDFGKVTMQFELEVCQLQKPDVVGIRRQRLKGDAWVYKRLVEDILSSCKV
T2 sequence (Q8TDR2 whole entry): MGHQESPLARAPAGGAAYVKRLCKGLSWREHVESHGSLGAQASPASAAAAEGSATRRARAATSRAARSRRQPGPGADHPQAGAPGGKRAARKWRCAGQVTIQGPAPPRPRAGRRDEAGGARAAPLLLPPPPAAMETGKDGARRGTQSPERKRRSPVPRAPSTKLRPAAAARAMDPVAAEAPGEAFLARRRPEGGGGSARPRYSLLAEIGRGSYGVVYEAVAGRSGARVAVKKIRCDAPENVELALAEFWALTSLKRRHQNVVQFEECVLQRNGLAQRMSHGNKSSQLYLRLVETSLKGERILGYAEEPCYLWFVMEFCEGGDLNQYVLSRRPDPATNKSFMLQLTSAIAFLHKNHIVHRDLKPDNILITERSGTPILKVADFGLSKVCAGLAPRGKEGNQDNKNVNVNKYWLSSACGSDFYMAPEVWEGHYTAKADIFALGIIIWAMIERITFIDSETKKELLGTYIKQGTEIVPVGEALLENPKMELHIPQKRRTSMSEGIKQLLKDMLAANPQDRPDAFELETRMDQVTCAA
T10 sequence (Q9UM73 19-1620 C1156Y): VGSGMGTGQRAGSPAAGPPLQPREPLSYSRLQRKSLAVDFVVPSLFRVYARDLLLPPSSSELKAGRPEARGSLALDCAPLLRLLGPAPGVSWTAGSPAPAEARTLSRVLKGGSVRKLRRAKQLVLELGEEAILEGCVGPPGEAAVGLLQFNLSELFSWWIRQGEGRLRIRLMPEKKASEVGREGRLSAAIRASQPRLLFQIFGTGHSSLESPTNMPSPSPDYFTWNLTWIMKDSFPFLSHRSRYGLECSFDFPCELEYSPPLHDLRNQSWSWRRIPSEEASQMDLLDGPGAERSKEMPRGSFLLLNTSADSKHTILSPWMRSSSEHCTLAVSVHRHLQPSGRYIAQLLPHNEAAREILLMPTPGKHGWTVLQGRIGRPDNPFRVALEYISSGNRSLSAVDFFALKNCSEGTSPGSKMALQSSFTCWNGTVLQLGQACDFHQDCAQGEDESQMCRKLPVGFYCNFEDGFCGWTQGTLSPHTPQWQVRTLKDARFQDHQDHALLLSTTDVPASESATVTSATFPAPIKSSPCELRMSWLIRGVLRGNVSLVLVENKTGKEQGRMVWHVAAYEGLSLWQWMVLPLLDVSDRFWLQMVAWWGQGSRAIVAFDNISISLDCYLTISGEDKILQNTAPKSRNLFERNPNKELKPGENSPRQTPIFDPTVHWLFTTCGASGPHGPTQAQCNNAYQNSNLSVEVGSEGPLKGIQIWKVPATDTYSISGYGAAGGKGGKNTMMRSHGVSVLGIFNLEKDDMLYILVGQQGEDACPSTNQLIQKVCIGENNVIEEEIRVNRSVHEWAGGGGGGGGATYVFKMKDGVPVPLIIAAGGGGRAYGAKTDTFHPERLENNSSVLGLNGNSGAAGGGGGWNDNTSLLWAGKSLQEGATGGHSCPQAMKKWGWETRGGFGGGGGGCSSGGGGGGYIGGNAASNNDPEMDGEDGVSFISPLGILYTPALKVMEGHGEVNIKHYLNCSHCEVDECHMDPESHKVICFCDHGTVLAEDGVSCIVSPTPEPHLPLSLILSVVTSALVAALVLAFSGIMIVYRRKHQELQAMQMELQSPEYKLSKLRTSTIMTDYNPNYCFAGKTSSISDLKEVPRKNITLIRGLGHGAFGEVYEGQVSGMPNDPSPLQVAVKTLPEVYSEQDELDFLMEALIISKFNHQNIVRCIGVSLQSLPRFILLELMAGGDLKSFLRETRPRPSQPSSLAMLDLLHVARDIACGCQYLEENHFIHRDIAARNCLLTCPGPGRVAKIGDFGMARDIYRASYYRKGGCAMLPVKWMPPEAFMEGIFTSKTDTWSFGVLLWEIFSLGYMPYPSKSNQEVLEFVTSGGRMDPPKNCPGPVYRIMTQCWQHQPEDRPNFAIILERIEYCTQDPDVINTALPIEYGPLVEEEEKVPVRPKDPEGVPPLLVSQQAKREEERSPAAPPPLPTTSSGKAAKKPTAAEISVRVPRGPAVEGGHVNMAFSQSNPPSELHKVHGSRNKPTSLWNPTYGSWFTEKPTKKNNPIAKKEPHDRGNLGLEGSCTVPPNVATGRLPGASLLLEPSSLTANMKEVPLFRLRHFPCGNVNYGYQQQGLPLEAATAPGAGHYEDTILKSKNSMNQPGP
T24 sequence (Q92630 whole entry): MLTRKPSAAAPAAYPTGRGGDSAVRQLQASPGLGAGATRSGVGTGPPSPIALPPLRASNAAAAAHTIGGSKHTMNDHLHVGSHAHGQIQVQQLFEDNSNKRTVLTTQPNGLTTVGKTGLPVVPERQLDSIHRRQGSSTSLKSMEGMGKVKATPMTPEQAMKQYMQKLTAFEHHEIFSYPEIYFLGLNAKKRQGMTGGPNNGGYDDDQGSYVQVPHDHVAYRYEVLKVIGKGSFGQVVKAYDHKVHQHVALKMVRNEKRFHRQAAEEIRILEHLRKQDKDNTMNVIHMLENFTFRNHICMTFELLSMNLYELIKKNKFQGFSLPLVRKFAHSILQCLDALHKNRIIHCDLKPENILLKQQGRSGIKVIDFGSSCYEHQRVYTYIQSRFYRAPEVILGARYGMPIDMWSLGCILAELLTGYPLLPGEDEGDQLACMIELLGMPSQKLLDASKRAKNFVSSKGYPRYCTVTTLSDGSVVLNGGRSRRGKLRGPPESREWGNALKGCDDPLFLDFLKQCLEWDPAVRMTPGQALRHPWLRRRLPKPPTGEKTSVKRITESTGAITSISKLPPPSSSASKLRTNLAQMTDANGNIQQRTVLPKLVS
T3 sequence (Q9BQI3 whole entry): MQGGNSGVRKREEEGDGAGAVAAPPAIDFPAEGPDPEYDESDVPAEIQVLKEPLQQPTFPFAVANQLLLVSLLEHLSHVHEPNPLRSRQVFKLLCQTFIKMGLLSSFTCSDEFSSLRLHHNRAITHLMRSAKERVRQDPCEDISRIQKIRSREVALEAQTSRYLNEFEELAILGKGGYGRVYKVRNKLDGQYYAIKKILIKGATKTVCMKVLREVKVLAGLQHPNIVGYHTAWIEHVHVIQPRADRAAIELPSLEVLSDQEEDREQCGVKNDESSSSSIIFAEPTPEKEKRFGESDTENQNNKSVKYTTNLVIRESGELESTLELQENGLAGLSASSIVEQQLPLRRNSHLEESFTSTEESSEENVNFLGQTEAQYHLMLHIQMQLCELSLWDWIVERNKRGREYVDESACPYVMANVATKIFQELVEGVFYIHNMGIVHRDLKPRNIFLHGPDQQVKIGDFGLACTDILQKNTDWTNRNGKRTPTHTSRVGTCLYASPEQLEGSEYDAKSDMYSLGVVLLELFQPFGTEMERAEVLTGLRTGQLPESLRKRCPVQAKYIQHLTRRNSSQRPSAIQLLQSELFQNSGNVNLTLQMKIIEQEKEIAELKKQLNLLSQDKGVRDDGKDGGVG

Cc1cn(CCN2CCN(c3ccccc3-c3cc(C#N)cc(C(=O)NCCCN4CCCC4)c3)CC2)c2ccccc12 [LLY-507, 3-cyano-5-{2-[4-[2-(3-methylindol-1-yl)ethyl]piperazin-1-yl]-phenyl}-N-[(3-pyrrolidin-1-yl)propyl]benzamide]
IC50 (hMELK): > 20 µM | IC50 (hSTK35): > 20 µM | time by which significant reductions in p53 Lys370 methylation occurred (p53 Lys370 methylation; 5 μM LLY-507, SMYD2-overexpressing KYSE-150): ≤ 18 h | total levels of p53 (p53 Lys370 methylation; KYSE-150 FLAG-SMYD2): not significantly affected | reduction of Lys370 methylation on cytoplasmic p53 (p53 Lys370 methylation; cytoplasmic fraction, KYSE-150 FLAG-SMYD2): 50% | reduction of Lys370 methylation on nuclear p53 (p53 Lys370 methylation; nuclear fraction, KYSE-150 FLAG-SMYD2): 25% | IC50 (hEIF2AK1): > 20 µM | IC50 (hDDR2): > 20 µM | IC50 (hTBK1): > 20 µM | IC50 (hFER): > 20 µM | IC50 (hSNARK): > 20 µM | % Effect, Potentiation (hD2L): -27.5% | IC50 (hULK1): > 20 µM | IC50 [1]: > 20 µM | IC50 (hALK(C1156Y)): > 20 µM | IC50 (hABL1(pQ252H)): > 20 µM | IC50 (hLKB1): > 20 µM | IC50 (hYANK1): > 20 µM | IC50 (hKIT): > 20 µM | IC50 (hAXL): > 20 µM | IC50 (hEPHA3): > 20 µM | IC50 (hBMPR1A): > 20 µM | IC50 (hCLK4): > 20 µM | IC50 (hCAMK1D): > 20 µM | inhibition at 10 µM (hADRβ2): -15.6% | IC50 (hMAP3K3): > 20 µM | IC50 (hYES): > 20 µM | IC50 (hTAOK2): > 20 µM | IC50 (hDCAMKL1): > 20 µM | IC50 (hDYRK2): > 20 µM | IC50 (hSRPK3): > 20 µM | IC50 (hRARα): > 10 µM | IC50 (hFGFR3(G697C)): > 20 µM | IC50 (hRXRα): > 10 µM | IC50 (hGRK4): > 20 µM
